pIC50: −log10 of the molar value.

Data set [1] addresses T1, Solute carrier family 22 member 11 (Homo sapiens, UniProt Q9NSA0).
T1 sequence (Q9NSA0 whole entry): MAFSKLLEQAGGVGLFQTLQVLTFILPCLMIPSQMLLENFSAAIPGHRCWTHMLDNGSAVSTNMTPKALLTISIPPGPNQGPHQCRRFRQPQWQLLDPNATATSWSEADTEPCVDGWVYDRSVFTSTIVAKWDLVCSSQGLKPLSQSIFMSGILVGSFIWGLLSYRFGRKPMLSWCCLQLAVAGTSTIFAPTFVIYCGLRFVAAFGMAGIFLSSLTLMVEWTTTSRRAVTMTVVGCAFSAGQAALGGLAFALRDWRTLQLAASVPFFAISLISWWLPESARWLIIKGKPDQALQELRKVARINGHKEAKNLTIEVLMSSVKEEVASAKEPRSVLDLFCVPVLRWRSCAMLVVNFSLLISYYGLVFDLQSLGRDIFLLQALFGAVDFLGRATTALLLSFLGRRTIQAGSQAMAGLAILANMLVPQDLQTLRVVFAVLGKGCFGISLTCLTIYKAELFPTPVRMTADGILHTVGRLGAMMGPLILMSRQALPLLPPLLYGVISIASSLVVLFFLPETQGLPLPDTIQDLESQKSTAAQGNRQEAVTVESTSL
Nature of the data set: TP_TRANSPORTER: inhibition of p-aminohippurate uptake (p-aminohippurate / 10uM) by ellagic acid at a concentration of 35uM in Xenopus laevis oocytes. Conditions: oocyte. On the set-up: scale not given: the % may be the effect or the level left. The format is functional, cell-based.

In data set [2] the target is T2, Solute carrier family 22 member 6 (Homo sapiens, UniProt Q4U2R8).
T2 sequence (Q4U2R8 whole entry): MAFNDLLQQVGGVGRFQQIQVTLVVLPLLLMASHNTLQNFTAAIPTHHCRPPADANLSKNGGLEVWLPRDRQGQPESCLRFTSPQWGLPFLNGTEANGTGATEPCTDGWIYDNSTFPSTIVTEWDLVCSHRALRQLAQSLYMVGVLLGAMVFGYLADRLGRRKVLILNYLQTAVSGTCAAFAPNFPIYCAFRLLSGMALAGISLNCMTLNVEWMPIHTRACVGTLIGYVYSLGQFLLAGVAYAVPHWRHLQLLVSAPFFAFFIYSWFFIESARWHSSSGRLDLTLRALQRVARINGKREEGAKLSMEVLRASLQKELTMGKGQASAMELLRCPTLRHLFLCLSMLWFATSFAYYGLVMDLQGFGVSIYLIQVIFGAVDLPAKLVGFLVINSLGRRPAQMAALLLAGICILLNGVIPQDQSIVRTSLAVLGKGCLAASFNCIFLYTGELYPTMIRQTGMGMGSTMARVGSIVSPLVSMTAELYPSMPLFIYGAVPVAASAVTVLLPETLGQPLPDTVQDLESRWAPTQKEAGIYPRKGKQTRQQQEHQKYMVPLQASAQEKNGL
In words: (§1) TP_TRANSPORTER: uptake in Xenopus laevis oocytes. It is filed as functional, cell-based. Conditions: oocyte.

Data set [3] addresses T1, Solute carrier family 22 member 11. Described as §1. It is filed as functional, cell-based. As to conditions: oocyte.
The target of data set [4] is T2, Solute carrier family 22 member 6. Nature of the data set: TP_TRANSPORTER: inhibition of ochratoxin A uptake (ochratoxin A / 1uM) in Xenopus laevis oocytes. It is filed as functional, cell-based, Oocyte.

What is called pIC50 is the IC50 on a negative log10 scale, so that one unit is a factor of ten. `O=c1oc2c(O)c(O)cc3c(=O)oc4c(O)c(O)cc1c4c23` [ELLAGIC ACID]: the Activity in data set [1] was 35%; in data set [2], “substrate [+]”; in data set [3] it was “substrate [+]”. The compound also gave a pIC50 in data set [4] of 6.57.

Values taken from ChEMBL document CHEMBL2074371, “The dietary polyphenol ellagic acid is a potent inhibitor of hOAT1” (Drug Metab Dispos, 2005).
